Measurements from US9937182B2, “Therapeutic strategies for the treatment of preeclampsia” (UNIVERSITY OF IOWA RESEARCH FOUNDATION, priority 2013, dated 2018).

Test system: C57Bl/6J female mice
Assay: Vasopressin infusion during pregnancy, tail-cuff blood pressure
Format: in vivo
Conditions: vasopressin 24 ng/hr s.c. compared to 2.4 ng/hr s.c., P=0.03
Description: Method: Wildtype C57Bl/6J female mice were chronically infused with varied doses of arginine vasopressin (Sigma-Aldrich), via subcutaneous osmotic minipumps (Alzet), for three days preceding mating, then through gestational day 16. Mice were first acclimated to the restraint devices used for recordings for one week (“week −3”) before data recordings began. Blood pressure was assessed daily for two weeks preceding minipump implantation, through gestational day 16. Blood pressure was measured using tail-cuff plethysmography (Visitech). On any given recording day, the mouse was restrained and lightly warmed throughout the (30 min) recording period. Thirty consecutive 1 min inflation/deflation cycles were performed and successful pressure determinations were averaged within recording period for each mouse. Data sets from individual days with fewer than 10 successful determinations were excluded from analyses. Daily blood pressure values were averaged within animal for each week for statistical comparisons.

## NC(=O)CC[C@@H]1NC(=O)[C@H](Cc2ccccc2)NC(=O)[C@H](Cc2ccc(O)cc2)NC(=O)[C@@H](N)CSSC[C@@H](C(=O)N2CCC[C@H]2C(=O)N[C@@H](CCCN=C(N)N)C(=O)NCC(N)=O)NC(=O)[C@H](CC(N)=O)NC1=O [Arginine vasopressin]
  blood pressure, third week of pregnancy (gestational days 14-16): increased blood pressure
Listed as AVP
  blood pressure, third week of pregnancy (gestational days 14-16): late-pregnancy increase in blood pressure
